# Data taken from ChEMBL document CHEMBL2169834, “Toward rational fragment-based lead design without 3D structures” (J Med Chem, 2012).
# Active and inactive are the calls of the source. The calls are words filed in the database; no cut-off is given here.
# Tests used:
# [1] = target: T1, Catenin beta-1 (Homo sapiens) (UniProt P35222); assay: Binding affinity to human beta-catenin at 1 mM by 1H-STD NMR analysis
# T1 sequence (whole entry): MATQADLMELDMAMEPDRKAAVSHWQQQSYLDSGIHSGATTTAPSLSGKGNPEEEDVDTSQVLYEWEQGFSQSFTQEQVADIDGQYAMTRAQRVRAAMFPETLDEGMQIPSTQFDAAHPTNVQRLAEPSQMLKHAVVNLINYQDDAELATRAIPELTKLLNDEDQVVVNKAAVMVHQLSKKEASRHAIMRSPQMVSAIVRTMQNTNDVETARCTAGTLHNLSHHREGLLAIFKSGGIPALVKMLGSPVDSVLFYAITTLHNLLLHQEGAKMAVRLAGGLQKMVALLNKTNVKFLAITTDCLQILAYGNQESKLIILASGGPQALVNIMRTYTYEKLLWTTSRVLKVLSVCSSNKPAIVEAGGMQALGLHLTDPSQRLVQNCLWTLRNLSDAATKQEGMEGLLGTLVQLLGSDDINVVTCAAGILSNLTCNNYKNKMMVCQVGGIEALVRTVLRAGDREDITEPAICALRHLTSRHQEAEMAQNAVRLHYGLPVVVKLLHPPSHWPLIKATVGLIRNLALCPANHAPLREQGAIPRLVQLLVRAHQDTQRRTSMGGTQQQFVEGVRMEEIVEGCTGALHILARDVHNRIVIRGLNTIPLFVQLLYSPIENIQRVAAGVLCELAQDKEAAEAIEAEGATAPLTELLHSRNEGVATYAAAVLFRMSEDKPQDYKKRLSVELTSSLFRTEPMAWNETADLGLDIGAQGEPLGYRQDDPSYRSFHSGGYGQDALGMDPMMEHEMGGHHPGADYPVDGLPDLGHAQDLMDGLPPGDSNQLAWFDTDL
# [2] = Binding affinity to quail lipocalin Q83 assessed as second molecule binding at 2:1 compound:protein ratio by […]; set-up: species or system Galliformes
# [3] = Binding affinity to quail lipocalin Q83 assessed as first molecule binding at 2:1 compound:protein ratio by […]; set-up: species or system Galliformes
# Galliformes = assay: Binding affinity to quail lipocalin Q83 by 1H-15N HSQC-based NMR analysis
# [4] = Binding affinity to quail lipocalin Q83 at 200 uM by tryptophan fluorescence quenching experiment; set-up: species or system Galliformes
Activity [1],Kd [2] [µM],Kd [3] [µM],Activity (Galliformes),Kd [4] [µM],SMILES
Active,–,–,–,–,Cc1c(Br)cc2c(-c3ccccc3C(=O)O)c3cc(Br)c(=O)c(Br)c-3oc2c1Br
–,70000,500,Active,–,COc1cc(C(=O)O)ccc1O [VANILLIC ACID]
Active,–,–,–,–,O=C1OC2(c3ccc(O)cc3Oc3cc(O)ccc32)c2ccccc21
–,–,–,Active,25,Nc1ccc(/N=N/c2ccc(S(=O)(=O)O)cc2)cc1S(=O)(=O)O
